What was measured:
[1] = tested on: Sxlpe tTa^(A, B, C, F) × tRe Msl-1^Mpu(A, B); assay: Single chromosome crosses at 25° C., adult progeny by sex; type: in vivo, Drosophila melanogaster
Protocol: (§1) In “single chromosome crosses” at 25° C., ten to fifteen virgin females homozygous for the tTA construct and five to ten young males homozygous for the tRe construct were placed on food containing or lacking a tetracycline supplement.

[2] = tested on: Stwl tTa^(A, B, C) × tRe Msl-1^Mpu(A, B); assay: as above; type: in vivo, Drosophila melanogaster
Protocol: as §1

[3] = tested on: Stwl tTa^(A, B, C) × tRe Msl-2^Nopu(B, C, D); assay: as above; type: in vivo, Drosophila melanogaster
Protocol: as §1

[4] = tested on: Yp3 tTa^(A) × tRe Ras64B^V12(B, C,); assay: as above; type: in vivo, Drosophila melanogaster
Protocol: as §1

[5] = tested on: Sxlpe tTa^(A, B, C, F) × tRe Msl-2^Nopu(B, C, D); assay: as above; type: in vivo, Drosophila melanogaster
Protocol: as §1

[6] = tested on: Actin5C tTa^(B, C, E) × tRe Ras64B^V12(B, C); assay: as above; type: in vivo, Drosophila melanogaster
Protocol: as §1

[7] = tested on: Stwl tTa^(A, B, C) × tRe Ras64B^V12(B, C); assay: as above; type: in vivo, Drosophila melanogaster
Protocol: as §1

[8] = tested on: Actin5C tTa^(B, C, E) × tRe Msl-1^MPu(A, B); assay: as above; type: in vivo, Drosophila melanogaster
Protocol: as §1

[9] = tested on: Yp3 tTa^(A) × tRe Msl-2^Nopu(A, B,); assay: as above; type: in vivo, Drosophila melanogaster
Protocol: as §1

[10] = tested on: Hsp26 tTa^(A) × tRe Ras64B^V12(B, C,); assay: as above; type: in vivo, Drosophila melanogaster
Protocol: as §1

[11] = tested on: Actin5C tTa^(B, C, E) × tRe Msl-2^Nopu (B, C, D); assay: as above; type: in vivo, Drosophila melanogaster
Protocol: as §1

[12] = tested on: Yp3 tTa, tRe Msl-1^Mpu on the 2nd chromosome; assay: Recombinant chromosome experiments: parents raised on supplement, progeny on normal food, adults by sex (25, 18 or 29° C.); type: in vivo, Drosophila melanogaster
Protocol: 40-45 young females and 20-25 young males raised at 25° C. upon food with the indicated tetracycline supplement were allowed to mate, then transferred to normal (tetracycline-free) food after 3-4 days. These flies were transferred to fresh vials of normal food every day for 12 days, then removed on the 13th day. All the vials were incubated at 25° C. while the progeny developed. The numbers of male and female progeny emerging as adults in each vial were recorded.
Since there is no meiotic recombination in Drosophila melanogaster males, any of these recombinant chromosomes could be used in a genetic sexing or insect control program, if required.
A standard range of additive concentrations were used in the following experiments (0.05-20 μg/ml). […] (=“not done”)
All the preceding experiments were performed at 25° C., the standard temperature for Drosophila culture. However, the insects in the wild would clearly be exposed to varying temperatures, so we investigated the extent to which the efficiency of the system is affected by temperature. As with the recombinant chromosome experiments, 40-45 young virgin females and 20-25 young males raised at 25° C. upon food with the indicated tetracycline supplement were allowed to mate, then transferred to normal (tetracycline-free) food after 3-4 days. These flies were transferred to fresh vials of normal food every day. The numbers of male and female progeny emerging as adults in each vial were recorded. These experiments were performed at either 18° C. or 29° C.

[13] = tested on: Hsp26 tTa^(A) × tRe Msl-2^Nopu(A, B,); assay: Single chromosome crosses at 25° C., adult progeny by sex
[14] = parents raised on tetracycline 0.1 μg/ml, 18° C.
[15] = parents raised on tetracycline 0.1 μg/ml, 29° C.
[16] = parents raised on tetracycline 1 μg/ml, 18° C.
[17] = parents raised on tetracycline 1 μg/ml, 29° C.
[18] = parents raised on tetracycline 5 μg/ml, 18° C.
[19] = parents raised on tetracycline 5 μg/ml, 29° C.

CN(C)[C@@H]1C(O)=C(C(N)=O)C(=O)[C@@]2(O)C(O)=C3C(=O)c4c(O)cccc4[C@@](C)(O)[C@H]3C[C@@H]12 [Tetracycline, tetracycline]
Female progeny Total ([1]; Tetracycline 0.1 μg/ml in food): 296 | Male progeny Total ([1]; Tetracycline 0.1 μg/ml in food): 520 | Female progeny Total ([1]; Tetracycline 1 μg/ml in food): 326 | Male progeny Total ([1]; Tetracycline 1 μg/ml in food): 473 | Female progeny Total ([1]; Tetracycline 5 μg/ml in food): 304 | Male progeny Total ([1]; Tetracycline 5 μg/ml in food): 535 | Female progeny Total ([2]; Tetracycline 0.1 μg/ml in food): 211 | Male progeny Total ([2]; Tetracycline 0.1 μg/ml in food): 336 | Female progeny Total ([2]; Tetracycline 1 μg/ml in food): 236 | Male progeny Total ([2]; Tetracycline 1 μg/ml in food): 257 | Female progeny Total ([2]; Tetracycline 5 μg/ml in food): 223 | Male progeny Total ([2]; Tetracycline 5 μg/ml in food): 291 | Female progeny Total ([3]; Tetracycline 0.1 μg/ml in food): 436 | Male progeny Total ([3]; Tetracycline 0.1 μg/ml in food): 491 | Female progeny Total ([3]; Tetracycline 1 μg/ml in food): 439 | Male progeny Total ([3]; Tetracycline 1 μg/ml in food): 490 | Female progeny Total ([3]; Tetracycline 5 μg/ml in food): 434 | Male progeny Total ([3]; Tetracycline 5 μg/ml in food): 481 | Female progeny Total ([4]; Tetracycline 0.1 μg/ml in food): 322 | Male progeny Total ([4]; Tetracycline 0.1 μg/ml in food): 352 | Female progeny Total ([4]; Tetracycline 1 μg/ml in food): 342 | Male progeny Total ([4]; Tetracycline 1 μg/ml in food): 376 | Female progeny Total ([4]; Tetracycline 5 μg/ml in food): 316 | Male progeny Total ([4]; Tetracycline 5 μg/ml in food): 354 | Female progeny Total ([5]; Tetracycline 0.1 μg/ml in food): 647 | Male progeny Total ([5]; Tetracycline 0.1 μg/ml in food): 562 | Female progeny Total ([5]; Tetracycline 1 μg/ml in food): 644 | Male progeny Total ([5]; Tetracycline 1 μg/ml in food): 674 | Female progeny Total ([5]; Tetracycline 5 μg/ml in food): 615 | Male progeny Total ([5]; Tetracycline 5 μg/ml in food): 742 | Female progeny Total ([6]; Tetracycline 0.1 μg/ml in food): 361 | Male progeny Total ([6]; Tetracycline 0.1 μg/ml in food): 372 | Female progeny Total ([6]; Tetracycline 1 μg/ml in food): 427 | Male progeny Total ([6]; Tetracycline 1 μg/ml in food): 383 | Female progeny Total ([6]; Tetracycline 5 μg/ml in food): 375 | Male progeny Total ([6]; Tetracycline 5 μg/ml in food): 400 | Female progeny Total ([7]; Tetracycline 0.1 μg/ml in food): 317 | Male progeny Total ([7]; Tetracycline 0.1 μg/ml in food): 315 | Female progeny Total ([7]; Tetracycline 1 μg/ml in food): 307 | Male progeny Total ([7]; Tetracycline 1 μg/ml in food): 328 | Female progeny Total ([7]; Tetracycline 5 μg/ml in food): 271 | Male progeny Total ([7]; Tetracycline 5 μg/ml in food): 335 | Female progeny Total ([8]; Tetracycline 0.1 μg/ml in food): 412 | Male progeny Total ([8]; Tetracycline 0.1 μg/ml in food): 402 | Female progeny Total ([8]; Tetracycline 1 μg/ml in food): 321 | Male progeny Total ([8]; Tetracycline 1 μg/ml in food): 351 | Female progeny Total ([8]; Tetracycline 5 μg/ml in food): 386 | Male progeny Total ([8]; Tetracycline 5 μg/ml in food): 401 | Female progeny Total ([9]; Tetracycline 0.1 μg/ml in food): 268 | Male progeny Total ([9]; Tetracycline 0.1 μg/ml in food): 248 | Female progeny Total ([9]; Tetracycline 1 μg/ml in food): 324 | Male progeny Total ([9]; Tetracycline 1 μg/ml in food): 362 | Female progeny Total ([9]; Tetracycline 5 μg/ml in food): 349 | Male progeny Total ([9]; Tetracycline 5 μg/ml in food): 386 | Female progeny Total ([10]; Tetracycline 0.1 μg/ml in food): 235 | Male progeny Total ([10]; Tetracycline 0.1 μg/ml in food): 210 | Female progeny Total ([10]; Tetracycline 1 μg/ml in food): 199 | Male progeny Total ([10]; Tetracycline 1 μg/ml in food): 274 | Female progeny Total ([10]; Tetracycline 5 μg/ml in food): 156 | Male progeny Total ([10]; Tetracycline 5 μg/ml in food): 154 | Female progeny Total ([11]; Tetracycline 0.1 μg/ml in food): 548 | Male progeny Total ([11]; Tetracycline 0.1 μg/ml in food): 637 | Female progeny Total ([11]; Tetracycline 1 μg/ml in food): 590 | Male progeny Total ([11]; Tetracycline 1 μg/ml in food): 549 | Female progeny Total ([11]; Tetracycline 5 μg/ml in food): 615 | Male progeny Total ([11]; Tetracycline 5 μg/ml in food): 522 | escapers ([12]; even at low (parental) tetracycline concentrations): < 1% | Female progeny emerging as adults [12, 14]: 5 | Male progeny emerging as adults [12, 14]: 1303 | Female progeny emerging as adults [12, 15]: 0 | Male progeny emerging as adults [12, 15]: 799 | Female progeny emerging as adults [12, 16]: 14 | Male progeny emerging as adults [12, 16]: 1218 | Female progeny emerging as adults [12, 17]: 0 | Male progeny emerging as adults [12, 17]: 749 | Female progeny emerging as adults [12, 18]: 7 | Male progeny emerging as adults [12, 18]: 1386 | Female progeny emerging as adults [12, 19]: 0 | Male progeny emerging as adults [12, 19]: 744 | Female progeny Total ([13]; Tetracycline 0.1 μg/ml in food): 159 | Male progeny Total ([13]; Tetracycline 0.1 μg/ml in food): 159 | Female progeny Total ([13]; Tetracycline 1 μg/ml in food): 135 | Male progeny Total ([13]; Tetracycline 1 μg/ml in food): 122 | Female progeny Total ([13]; Tetracycline 5 μg/ml in food): 124 | Male progeny Total ([13]; Tetracycline 5 μg/ml in food): 120

Reference: patent US9125388B2, “Biological control” (Isis Innovation Limited, priority 1999, dated 2015)
